This note sets out measurements from PubChem BioAssay AID1259407 (Chemical Carcinogenesis Research Information System (CCRIS), 2018).

In this data set the test system is CCRIS mutagenicity, Ames/micronucleus/aberration tests. Description: CCRIS mutagenicity studies.
Where [1] appears, read: Test System: AMES SALMONELLA TYPHIMURIUM, Strain/Indicator: TA1535, Metabolic Activation: NONE, Method: PREINCUBATION
[2] abbreviates: Test System: AMES SALMONELLA TYPHIMURIUM, Strain/Indicator: TA1537, Metabolic Activation: NONE, Method: PREINCUBATION
Where [3] appears, read: Test System: AMES SALMONELLA TYPHIMURIUM, Strain/Indicator: TA100, Metabolic Activation: NONE, Method: STANDARD PLATE.
Setting [4] is: Test System: AMES SALMONELLA TYPHIMURIUM, Strain/Indicator: TA98, Metabolic Activation: NONE, Method: PREINCUBATION
[5] abbreviates: Test System: AMES SALMONELLA TYPHIMURIUM, Strain/Indicator: TA100, Metabolic Activation: NONE, Method: PREINCUBATION

Calls of active or inactive are those of the source. No rule for the calls is given here.

As for `Brc1c2ccccc2cc2c1ccc1ccccc12`, the mutagenic call (Test System: AMES SALMONELLA TYPHIMURIUM, Strain/Indicator: TA100, Metabolic Activation: RAT, LIVER, S-9, PCB, Method: STANDARD PLATE) is “active; positive”.

Take `C[n+]1c2ccccc2cc2ccc(N)cc21`: the mutagenic call is “inactive; negative” under setting [1]; “inactive; negative” (Test System: AMES SALMONELLA TYPHIMURIUM, Strain/Indicator: TA1535, Metabolic Activation: RAT, LIVER, S-9, TETRACHLOROBIPHENYL, Method: PREINCUBATION); “active; positive” under setting [2]; “active; positive” (Test System: AMES SALMONELLA TYPHIMURIUM, Strain/Indicator: TA1537, Metabolic Activation: RAT, LIVER, S-9, TETRACHLOROBIPHENYL, Method: PREINCUBATION); “inactive; negative” (Test System: AMES SALMONELLA TYPHIMURIUM, Strain/Indicator: TA1538, Metabolic Activation: NONE, Method: PREINCUBATION); “active; positive” (Test System: AMES SALMONELLA TYPHIMURIUM, Strain/Indicator: TA1538, Metabolic Activation: RAT, LIVER, S-9, TETRACHLOROBIPHENYL, Method: PREINCUBATION). Moreover, the mutagenic call by setting is: (Test System: AMES SALMONELLA TYPHIMURIUM, Strain/Indicator: TA1977, Metabolic Activation: NONE, Method: PREINCUBATION) “active; positive”; (Test System: AMES SALMONELLA TYPHIMURIUM, Strain/Indicator: TA1977, Metabolic Activation: RAT, LIVER, S-9, TETRACHLOROBIPHENYL, Method: PREINCUBATION) “active; positive”; (Test System: AMES SALMONELLA TYPHIMURIUM, Strain/Indicator: TA1978, Metabolic Activation: RAT, LIVER, S-9, TETRACHLOROBIPHENYL, Method: PREINCUBATION) “inactive; negative”.

Take `c1ccc2c(OC[C@H]3CO3)cccc2c1`: the mutagenic call under setting [3] was “active; positive”.

Regarding `C[C@@H]1COc2c(N3CCN(C)CC3)c(F)cc3c(=O)c(C(=O)O)cn1c23`, the mutagenic call is “inactive; negative” under setting [4]; “inactive; negative” (Test System: AMES SALMONELLA TYPHIMURIUM, Strain/Indicator: TA98, Metabolic Activation: RAT, LIVER, S-9, PHENOBARBITAL AND BETA-NAPHTHOFLAVONE, Method: PREINCUBATION); “inactive; negative” under setting [5]; “inactive; negative” (Test System: AMES SALMONELLA TYPHIMURIUM, Strain/Indicator: TA100, Metabolic Activation: RAT, LIVER, S-9, PHENOBARBITAL AND BETA-NAPHTHOFLAVONE, Method: PREINCUBATION); “inactive; negative” under setting [1]; “inactive; negative” (Test System: AMES SALMONELLA TYPHIMURIUM, Strain/Indicator: TA1535, Metabolic Activation: RAT, LIVER, S-9, PHENOBARBITAL AND BETA-NAPHTHOFLAVONE, Method: PREINCUBATION). In addition, the mutagenic call runs as follows: under setting [2], “inactive; negative”; (Test System: AMES SALMONELLA TYPHIMURIUM, Strain/Indicator: TA1537, Metabolic Activation: RAT, LIVER, S-9, PHENOBARBITAL AND BETA-NAPHTHOFLAVONE, Method: PREINCUBATION) “inactive; negative”; (Test System: E.COLI, Strain/Indicator: WP2 UVRA, Metabolic Activation: NONE, Method: PREINCUBATION) “inactive; negative”; (Test System: E.COLI, Strain/Indicator: WP2 UVRA, Metabolic Activation: RAT, LIVER, S-9, PHENOBARBITAL AND BETA-NAPHTHOFLAVONE, Method: PREINCUBATION) “inactive; negative”.

As to `CC1(C)CC(N=C=O)CC(C)(CN=C=O)C1` (stereo not given), the mutagenic call was “inactive; negative” (Test System: AMES SALMONELLA TYPHIMURIUM, Strain/Indicator: TA98, Metabolic Activation: HAMSTER, LIVER, S-9, AROCLOR 1254 (10%), Method: PREINCUBATION); “inactive; negative” under setting [4]; “inactive; negative” (Test System: AMES SALMONELLA TYPHIMURIUM, Strain/Indicator: TA98, Metabolic Activation: RAT, LIVER, S-9, AROCLOR 1254 (10%), Method: PREINCUBATION); “inactive; negative” (Test System: AMES SALMONELLA TYPHIMURIUM, Strain/Indicator: TA100, Metabolic Activation: HAMSTER, LIVER, S-9, AROCLOR 1254 (10%), Method: PREINCUBATION); “inactive; negative” under setting [5]; “inactive; negative” (Test System: AMES SALMONELLA TYPHIMURIUM, Strain/Indicator: TA100, Metabolic Activation: RAT, LIVER, S-9, AROCLOR 1254 (10%), Method: PREINCUBATION). For the same molecule, the mutagenic call is, setting by setting: (Test System: AMES SALMONELLA TYPHIMURIUM, Strain/Indicator: TA1535, Metabolic Activation: HAMSTER, LIVER, S-9, AROCLOR 1254 (10%), Method: PREINCUBATION) “inactive; negative”; under setting [1], “inactive; negative”; (Test System: AMES SALMONELLA TYPHIMURIUM, Strain/Indicator: TA1535, Metabolic Activation: RAT, LIVER, S-9, AROCLOR 1254 (10%), Method: PREINCUBATION) “inactive; negative”; (Test System: AMES SALMONELLA TYPHIMURIUM, Strain/Indicator: TA1537, Metabolic Activation: HAMSTER, LIVER, S-9, AROCLOR 1254 (10%), Method: PREINCUBATION) “inactive; negative”; under setting [2], “inactive; negative”; (Test System: AMES SALMONELLA TYPHIMURIUM, Strain/Indicator: TA1537, Metabolic Activation: RAT, LIVER, S-9, AROCLOR 1254 (10%), Method: PREINCUBATION) “inactive; negative”.

For the molecule `CC(=O)OCc1ccc([N+](=O)[O-])cc1`, the mutagenic call is “inactive; negative” under setting [4]; “inactive; negative” (Test System: AMES SALMONELLA TYPHIMURIUM, Strain/Indicator: TA100(NR), Metabolic Activation: NONE, Method: PREINCUBATION); “active; positive” under setting [5]; “active; positive” (Test System: AMES SALMONELLA TYPHIMURIUM, Strain/Indicator: TA100, Metabolic Activation: RAT, LIVER, S-9, AROCLOR 1254, Method: PREINCUBATION).

As for `Cn1c2ccccc2c2nn[n+]([O-])c(C(=O)OCCCl)c21`, the mutagenic call runs as follows: (Test System: AMES SALMONELLA TYPHIMURIUM, Strain/Indicator: TA97, Metabolic Activation: NONE, Method: STANDARD PLATE) “active; positive”; (Test System: AMES SALMONELLA TYPHIMURIUM, Strain/Indicator: TA97, Metabolic Activation: RAT, LIVER, S-9, AROCLOR 1254 (4%, 10%), Method: STANDARD PLATE) “active; positive”; (Test System: AMES SALMONELLA TYPHIMURIUM, Strain/Indicator: TA98, Metabolic Activation: NONE, Method: STANDARD PLATE) “active; positive”; (Test System: AMES SALMONELLA TYPHIMURIUM, Strain/Indicator: TA98, Metabolic Activation: RAT, LIVER, S-9, AROCLOR 1254 (4%, 10%), Method: STANDARD PLATE) “active; positive”; under setting [3], “inactive; negative”; (Test System: AMES SALMONELLA TYPHIMURIUM, Strain/Indicator: TA100, Metabolic Activation: RAT, LIVER, S-9, AROCLOR 1254 (4%, 10%), Method: STANDARD PLATE) “inactive; negative”. The mutagenic call by setting is: (Test System: AMES SALMONELLA TYPHIMURIUM, Strain/Indicator: TA102, Metabolic Activation: NONE, Method: STANDARD PLATE) “inactive; negative”; (Test System: AMES SALMONELLA TYPHIMURIUM, Strain/Indicator: TA102, Metabolic Activation: RAT, LIVER, S-9, AROCLOR 1254 (4%, 10%), Method: STANDARD PLATE) “inactive; negative”.
